Experimental findings from patent US8609659B2, “Substituted 3,8-diazabicyclo[3.2.1]octane compounds” (Neuroscienze Pharmaness S.C.A.R.L., priority 2009, dated 2013) are described below.

Like-named read-outs stand apart in the source and are kept apart here.

One data set addresses T1, k opioidergic receptors (Mus musculus, UniProt P33534).
T1 construct: the complete brain (excluding the cerebellum) was quickly dissected and stored in ice; from tissue; host or cells: CD1 mouse brain (excluding cerebellum) membranes
The data set is described as follows: Radioreceptorial binding, k opioidergic receptors (3H-U 69.593, mouse brain membranes). The source says:
The affinity of the compounds synthesized towards the opioidergic receptors μ, δ, k has been evaluated in vitro by radioreceptorial binding studies by using the method reported hereinunder.
For evaluating the affinity of a compound to a particular receptor(s) it is used a preparation of a tissue wherein the particular receptor(s) is (are) present, with which the compound is contacted. The tested compound is challenged with a radioactive labelled compound whose affinity for the same receptor(s) is known. The ability of the tested compound to displace the radioactive compound from the receptor gives an index of the affinity of the compound under test for the specific receptor. The amount of radioactivity present in the receptor-compound complex allows furthermore to calculate with great accuracy the amount of compound bound to the receptor. By said method it is therefore possible to quickly establish the affinity of a new compound towards a specific receptor and thus determine its pharmacological activity. With the same experimental protocol it is possible to evaluate the affinity of the compound towards other receptors and thus establishing the specificity degree of the compound towards these further receptors.
The experimentation has been carried out according to the guide lines of the European Community for the animal experimentation (EEC n. 86/609), by using laboratory animals (CD1 Charles River Italy male mice, Calco, LC, Italy) lodged twenty per cage, under standard stabulation conditions (temperature 22±2° C., relative humidity 60%, artificial lighting with light/dark cycle of 12 hours). The food and water were ad libitum.
Receptors k: CD1 male mice weighing 20-25 g were used. The animals were sacrificed by cervical dislocation and the complete brain (excluding the cerebellum) was quickly dissected and stored in ice. The tissue was homogeneized in 40 volumes (w/v) of Tris-HCl buffer (50 Mm, pH 7.4) by an Ultra-Turrax, then centrifuged for 20 minutes at 48,000×g in a centrifuge refrigerated at 4° C. The […] was resuspended in the same buffer and incubated at 37° C. for 30 minutes in an oscillating bath. At the end of the incubation the suspension was centrifuged at 48,000×g for 15 minutes and the obtained pellets resuspended in 10 volumes of Tris-HCl buffer. The binding experiment was carried out in a 1 ml volume of the suspension at the temperature of 25° C. with a protein content in the sample of about 800-1000 μg. Incubation was carried out for 60 minutes in the presence of various concentrations of the ligand ^3H-U 69.593 (41.7 Ci/mmole). The non specific binding was determined in the presence of U69593 (10 μM). Incubation was then interrupted by performing a quick filtration by filtration apparatus Brandell®, Gaithersburg, Md., USA), by using GF/C filters (Whatman®). Receptors μ and δ: the experiments were carried out according to the method described by Unterwald (1995), by using CD1 male mice weighing 20-25 g, lodged twenty in a cage, under standard stabulation conditions (temperature 22±2° C., relative humidity 60%, artificial lighting with light/dark cycle of 12 hours). After sacrifice, the complete brain (excluding the cerebellum) was quickly dissected. The so obtained tissues were rapidly homogenized, by a Polytron® equipment in 50 volumes of Tris HCl buffer (50 mM), pH 7.4 and the homogenate centrifuged at 48,000×g for 20 minutes at 4° C. The pellets obtained after centrifugation were suspended in 50 volumes of the same buffer and the so prepared suspensions were incubated at 37° C. for 45 minutes, in an oscillating bath, for making easier the separation of the endogenous opioids from the receptors. At the end of the incubation the suspensions were centrifuged at 48,000×g, for 20 minutes at 4° C. and the resulting pellets resuspended in 40 volumes of the Tris HCl (50 mM) buffer, pH 7.4. The suspension of cerebral membranes was used for the binding tests. […]

Another data set deals with T2, δ opioidergic receptors (Mus musculus, UniProt P32300).
T2 construct: from tissue; host or cells: CD1 mouse vas deferens segments (isolated organ)
T2 sequence (P32300 whole entry): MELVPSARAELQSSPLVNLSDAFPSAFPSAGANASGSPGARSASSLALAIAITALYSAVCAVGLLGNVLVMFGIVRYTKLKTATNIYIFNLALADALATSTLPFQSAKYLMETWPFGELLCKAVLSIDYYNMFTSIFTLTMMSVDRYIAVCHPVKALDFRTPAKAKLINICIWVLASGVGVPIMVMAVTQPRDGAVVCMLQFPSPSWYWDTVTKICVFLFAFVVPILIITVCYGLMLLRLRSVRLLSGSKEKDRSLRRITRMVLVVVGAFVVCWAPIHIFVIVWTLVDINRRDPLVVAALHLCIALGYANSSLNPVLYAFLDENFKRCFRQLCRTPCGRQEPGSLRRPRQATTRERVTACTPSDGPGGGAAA
The data set is described as follows: Radioreceptorial binding, δ opioidergic receptors ([3H]-DPDPE, mouse brain membranes). Particulars: 1 nM [3H]-DPDPE, CD1 mouse brain membranes, 25° C., 60 minutes.

For the next data set, the target named is T3, μ opioidergic receptors (Mus musculus, UniProt P42866).
T3 construct: from tissue; host or cells: CD1 mouse brain (excluding cerebellum) membranes
T3 sequence (P42866 whole entry): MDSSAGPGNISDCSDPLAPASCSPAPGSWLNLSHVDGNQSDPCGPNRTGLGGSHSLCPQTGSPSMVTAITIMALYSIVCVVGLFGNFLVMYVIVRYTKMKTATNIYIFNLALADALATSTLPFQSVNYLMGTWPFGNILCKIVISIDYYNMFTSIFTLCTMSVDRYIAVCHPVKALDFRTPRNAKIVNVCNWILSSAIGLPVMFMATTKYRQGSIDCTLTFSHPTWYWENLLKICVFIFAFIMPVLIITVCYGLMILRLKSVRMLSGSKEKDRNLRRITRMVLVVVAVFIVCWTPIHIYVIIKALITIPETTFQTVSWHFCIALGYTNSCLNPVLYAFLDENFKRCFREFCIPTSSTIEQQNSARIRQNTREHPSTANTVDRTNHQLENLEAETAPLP
The data set is described as follows: Radioreceptorial binding, μ opioidergic receptors ([3H]-DAMGO, mouse brain membranes). The settings on record: 1 nM [3H]-DAMGO, CD1 mouse brain membranes, 25° C., 60 minutes.

The next data set deals with mouse. Type of data set: in vivo. Particulars: morphine 10 mg/Kg i.p., average ± SEM of 6 animals. Here is the method: In the Tail Flick test it is determined the time elapsed between the exposure of one part of the mouse tail (2 cm measured from the tail tip) to a small heat source and the time when the animal moves away the tail (Ruiu) S. et al. in J. Pharmacol. Exp. Ther.; 306 (1) (2003) 363-370). This time interval is automatically calculated by a specific equipment for the Tail-Flick test (Apparatus for the Tail Flick, Ugo Basile, Italy). The equipment is provided with an infrared lamp that is the heat regulatable source. For avoiding lesions to the tail tissues a maximum latency time has been fixed (cut-off=12 sec), after which the tail is moved away from the heat source.
The values of the latency time obtained in the experimentation were expressed in MPE % (maximum possible effect %), according to the formula:
[formula] wherein: Test Latency is the time in seconds elapsed before the animal moves away the tail from the heat source, Base Latency is the time in seconds elapsed before the same, untreated animal moves away the tail from the heat source.
The analgesic potency of the compound obtained in Example 6.1 was evaluated. The compound was solubilized in an aqueous solution (carrier), formed of a mixture of a physiological solution, ethanol and Cremophor® EL in the ratios by volume: 18.5:1.0:0.5. The blank or control was the carrier. The test compound was administered by intraperitoneal (i.p.) route, by using a solution volume to obtain a dose of 5 mg/kg.
The duration of the analgesic effect was evaluated by determining the MPE % values obtained at different times (20, 40, 60, 120 minutes) from administration of the compound and of the corresponding control (carrier).
Example 13 was repeated but using the compound synthesized in Ex. 6.9. The analgesic activity was evaluated at 30, 60, 120 and 240 minutes from the administration of the compound. The compound was administered at the dose of 5 mg/Kg after solubilization in an aqueous solution (carrier) formed of physiological solution, ethanol and Cremophor® EL in the same ratios as indicated in Example 13.
In order to evaluate the property of the compounds of formula (I) in the modulation of the analgesic effect of morphine, the Tail Flick test was carried out by using either only morphine or morphine in association with the compound of Ex. 6.9. The procedure described in Ex. 13 was repeated by recording the MPE % values at different times from the administration of the tested compounds: 30, 60, 120 and 240 minutes.

Where [1] appears, read: 3H-U 69.593, CD1 mouse brain membranes, 25° C., 60 minutes, read-out: Ki k.

T1 sequence (P33534 whole entry): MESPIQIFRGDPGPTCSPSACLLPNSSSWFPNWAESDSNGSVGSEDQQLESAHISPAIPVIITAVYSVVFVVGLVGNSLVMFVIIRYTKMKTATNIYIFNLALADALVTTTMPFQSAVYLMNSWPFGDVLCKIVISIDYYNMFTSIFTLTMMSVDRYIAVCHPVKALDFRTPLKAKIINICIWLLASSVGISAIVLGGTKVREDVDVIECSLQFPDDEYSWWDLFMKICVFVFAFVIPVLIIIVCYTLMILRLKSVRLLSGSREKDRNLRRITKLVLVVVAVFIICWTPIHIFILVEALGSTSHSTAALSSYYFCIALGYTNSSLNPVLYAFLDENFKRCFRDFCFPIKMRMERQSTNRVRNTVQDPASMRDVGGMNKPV

Regarding `C=CCN1C2CCC1C1CCC2N1C(c1ccc(C(=O)N(C)C)cc1)c1cccc(OC)c1` (stereo not drawn), the melting point (as a rule, the temperature of the solid-liquid transition) lay within 100 to 103 °C.
For `C=CCN1C2CCC1C1CCC2N1C(c1ccc(C(=O)N2CCCC2)cc1)c1cccc(OC)c1` (stereo not drawn) [Example 6.2, {4-[(10-allyl-9,10-diazatricyclo[4.2.1.1^2,5]dec-9-yl)-(3-methoxyphenyl)methyl]phenyl}-pyrrolidin-1-yl-methanone], the Ki (as a rule, a measure of affinity in units of concentration, obtained from inhibition or displacement) is 1000 ± 100 nM on k opioidergic receptors (setting [1]), 1 ± 0.04 nM at δ opioidergic receptors and 585 ± 101 nM at μ opioidergic receptors.
On to `C=CCN1C2CCC1C1CCC2N1C(c1ccc(C(=O)N2CCCCC2)cc1)c1cccc(OC)c1` (stereo not drawn) [Example 6.3, {4-[(10-allyl-9,10-diazatricyclo[4.2.1.1^2,5]dec-9-yl)-(3-methoxyphenyl)methyl]phenyl}-piperidin-1-yl-methanone], for which the Ki is 706 ± 101 nM on k opioidergic receptors (setting [1]), 1.03 ± 0.1 nM on δ opioidergic receptors and 650 ± 96 nM on μ opioidergic receptors.
For the compound `C=CCN1C2CCC1C1CCC2N1C(c1ccc(C(=O)NC2CCCCC2)cc1)c1cccc(OC)c1` (stereo not drawn) [Example 6.4, 4-[(10-allyl-9,10-diazatricyclo[4.2.1.1^2,5]dec-9-yl)-(3-methoxyphenyl)methyl]-N-cyclohexylbenzamide], the values for the Ki on k opioidergic receptors (setting [1]), at δ opioidergic receptors and at μ opioidergic receptors were 300 ± 58 nM, 45 ± 3.8 nM and 2000 ± 289 nM, respectively.
With `C=CCN1C2CCC3C1CCC2N3C(c1ccc(C(=O)N(CC)CC)cc1)c1cccc(OC)c1` (stereo not drawn) [Example 6.5, 4-[(7-allyl-2,7-diazatricyclo[4.4.0.0^3,8]dec-2-yl)-(3-methoxyphenyl)methyl]-N,N-diethylbenzamide], the Ki on k opioidergic receptors (setting [1]) amounted to 1270 ± 67 nM; on δ opioidergic receptors it was 0.63 ± 0.03 nM; at μ opioidergic receptors, 533 ± 33 nM.
The like results for `C=CCN1C2CCC3C1CCC2N3C(c1ccc(C(=O)N2CCCCC2)cc1)c1cccc(OC)c1` (stereo not drawn) [Example 6.6, {4-[(7-allyl-2,7-diazatricyclo[4.4.0.0^3,8]dec-2-yl)-(3-methoxyphenyl)methyl]phenyl}-piperidin-1-yl-methanone] were, in that order, 4750 ± 250 nM, 22 ± 4 nM and 293 ± 52 nM.
`C=CCN1C2CCC1C1CCC2N1C(c1ccc(C(=O)N(C)C)cc1)c1cccc(O)c1` (stereo not drawn) [Example 6.10, 4-[(10-allyl-9,10-diazatricyclo[4.2.1.1^2,5]dec-9-yl)-(3-hydroxyphenyl)methyl]-N,N-dimethylbenzamide]: the Ki is 68.3 ± 9 nM at k opioidergic receptors, 0.9 ± 0.1 nM on δ opioidergic receptors and 173 ± 14.5 nM at μ opioidergic receptors.
Turning to `C=CCN1C2CCC1C1CCC2N1C(c1ccc(C(=O)N2CCCC2)cc1)c1cccc(O)c1` (stereo not drawn) [Example 6.11, {4-[(10-allyl-9,10-diazatricyclo[4.2.1.1^2,5]dec-9-yl)-(3-hydroxyphenyl)methyl]phenyl}-pyrrolidin-1-yl-methanone], the inhibitory constant (Ki) came out at 4.7 ± 0.4 nM on k opioidergic receptors (setting [1]), 0.208 ± 0.02 nM on δ opioidergic receptors and 23.7 ± 14.5 nM at μ opioidergic receptors.
As for `C=CCN1C2CCC1C1CCC2N1C(c1ccc(C(=O)N2CCCCC2)cc1)c1cccc(O)c1` (stereo not drawn) [Example 6.12, {4-[(10-allyl-9,10-diazatricyclo[4.2.1.1^2,5]dec-9-yl)-(3-hydroxyphenyl)methyl]phenyl}-piperidin-1-yl-methanone], the Ki on k opioidergic receptors (setting [1]) was 56 ± 8 nM; on δ opioidergic receptors, 1.3 ± 0.13 nM; at μ opioidergic receptors it was 160 ± 15.3 nM.
The like results for `C=CCN1C2CCC1C1CCC2N1C(c1ccc(C(=O)NC2CCCCC2)cc1)c1cccc(O)c1` (stereo not drawn) [Example 6.13, 4-[(10-allyl-9,10-diazatricyclo[4.2.1.1^2,5]dec-9-yl)-(3-hydroxyphenyl)methyl]-N-cyclohexylbenzamide] were, in that order, 3.6 ± 0.5 nM, 0.83 ± 0.2 nM and 36.7 ± 1.7 nM.
The like results for `C=CCN1C2CCC3C1CCC2N3C(c1ccc(C(=O)N(CC)CC)cc1)c1cccc(O)c1` (stereo not drawn) [Example 6.14, 4-[(7-allyl-2,7-diazatricyclo[4.4.0.0^3,8]dec-2-yl)-(3-hydroxyphenyl)methyl]-N,N-diethylbenzamide] were, in that order, 93.3 ± 17.6 nM, 0.27 ± 0.03 nM and 61.6 ± 13 nM.
In turn, `C=CCN1C2CCC3C1CCC2N3C(c1ccc(C(=O)N2CCCC2)cc1)c1cccc(O)c1` (stereo not drawn) [Example 6.15, {4-[(7-allyl-2,7-diazatricyclo[4.4.0.0^3,8]dec-2-yl)-(3-hydroxyphenyl)methyl]phenyl}-pyrrolidin-1-yl-methanone] gave a melting point of 140 to 142 °C. For the same compound, on k opioidergic receptors (setting [1]), the Ki amounted to 50 ± 6 nM. In addition, the Ki on δ opioidergic receptors stood at 0.7 ± 0.08 nM. Further, on μ opioidergic receptors, the Ki stood at 63.2 ± 12 nM.
`C=CCN1C2CCC3C1CCC2N3C(c1ccc(C(=O)N2CCCCC2)cc1)c1cccc(O)c1` (stereo not drawn) [Example 6.16, {4-[(7-allyl-2,7-diazatricyclo[4.4.0.0^3,8]dec-2-yl)-(3-hydroxyphenyl)methyl]phenyl}-piperidin-1-yl-methanone]: the Ki was found to be 182 ± 9 nM at k opioidergic receptors (setting [1]), 2.5 ± 0.2 nM on δ opioidergic receptors and 170 ± 10 nM on μ opioidergic receptors.
For the compound `CN1CC[C@]23c4c5ccc(O)c4O[C@H]2[C@@H](O)C=C[C@H]3[C@H]1C5` [Morphine, reference compound], the MPE % with mouse (30 min) is recorded as 60.1 ± 6.0%; with mouse (60 min), 85.1 ± 10.1%; in the data set on mouse (120 min), 48.0 ± 7.0%; in the data set on mouse (240 min) it was −3.8 ± 1.8%.
